Earlier results in patent US20230404937A1, “NOVEL DISINTEGRATION ORAL FILM FORMULATION WITH A CONTROLLED OR SUSTAINED ACTIVE RELEASE” (INTELGENX CORP., priority 2022, published 2023).

Conditions: when orally ingested; first metabolized in the liver

For `CCCCCc1cc(O)c2c(c1)OC(C)(C)[C@@H]1CCC(C)=C[C@@H]21` [THC, tetrahydrocannabinol], the oral bioavailability is given as 5%.
